From patent US6566047B1, “Method for identifying neurite-growth promoting agents” (The Regents of the University of Colorado, priority 1998, dated 2003)
Where two headings read alike, the source gives them in different places.

Experiments:
GCPs plated on laminin = test: GCP release (detachment) assay on laminin; set-up: species or system rat
Method: GCP Release Assay. Petri dishes (35 mm diameter) were coated with 10 μg mouse laminin in PBS by incubation at room temperature for 60 min with shaking. Dishes were subsequently rinsed three times with PBS to remove unbound laminin and then blocked with 5% non-fat dry milk (Carnation) in PBS for 30 min. After three PBS rinses to remove blocking agent, the dishes were ready for the addition of GCPs. […] After incubation for five min at 37° C. this buffered GCP preparation was added to the laminincoated petri dishes. Contact with the substratum was facilitated by centrifuging the dishes for 15 min at 5000 g (Beckman JS5.2 rotor) at room temperature, followed by incubation at 37° C. to allow adhesion site formation. After 10 min, unattached GCPs were removed by rinsing the dishes twice with 1× modified Krebs buffer. Plated GCPs were then challenged with repellent factor (TRAP or thrombin) for 20 min at 37° C. The supernatant containing released GCPs was collected and centrifuged for protein determination of the pellet. GCPs that remained attached after repellent treatment were removed with 5% sodium dodecyl sulfate (SDS) for protein assay. Protein was measured according to Lowry et al. (1951) as modified by Peterson (1983). Results of these experiments were expressed as the percentage of released versus total GCP protein in the assay.

MAT-Lu cells = test: Boyden chamber motility assay, MAT-Lu cells; assay type: cell-based, rat; settings: for Mat-Lu cells crossing filter in % of control +/− SEM: 4 hr, thrombin 200 nM, CDC 126 nM
Method: Boyden Chamber Motility Assays. Disposable transwells (Coming Costar, Cambridge, Mass.) of 6.5 mm diameter and 8 μm pore size were coated with 5 μg/ml laminin on both sides. The membranes were washed twice with Hank's balanced salt solution (HBSS) and then pre-incubated with growth medium containing 10% fetal bovine serum. Trypsinized cells (5×10^4) were plated into the upper well. After 1 hour the upper chamber was washed twice with HBSS, filled with serum-free medium and moved to a new lower chamber, also filled with serum-free medium, with or without thrombin and/or 0.75 nM insulin-like growth factor-1 (IGF-1). After incubation for 4 hrs, cells on the membrane were fixed and stained with a Diff-Quick kit (Baxter Scientific Products). Cells on the upper side were scraped off, the membranes were removed, mounted onto microscope slides and analyzed. Each filter was scanned twice at right angles under the light microscope with a 16×phase contrast objective lens. A continuous series of 20 frames for each filter was digitized using a high-resolution CCD camera (Kodak) and stored in a Power Macintosh computer. The two most peripheral pairs of frames from each scan were deleted so that 12 frames were analyzed for each filter. Cells that had crossed the membrane were counted and tabulated. The sum of the cells counted in the twelve frames was an individual data point.

cPLA2 [1] = test: cPLA2 activity in PC-3M-MM2 cells; assay type: biochemical, human
Method: PLA2 stimulation. Using ^14C-AA-PE, -PC or -PI as a substrate, thrombin, SemaIV and netrin activation of the enzyme are measured. For these assays, commercially available thrombin or thrombin-receptor-activating peptide (TRAP) (Sigma, St. Louis, Mo.), recombinant SemaIV provided to us by Dr. H. Drabkin, University of Colorado School of Medicine, recombinant SemaIII provided by Dr. Y. Luo, Exelixis Pharmaceuticals, San Francisco Calif., and recombinant netrin from Dr. M. Tessier-Lavigne, (University of California, San Francisco) are used. Time courses and dose-response curves are generated with the appropriate substrate(s). These assays are carried out according to well-established protocols described in Negre-Aminou et al., 1996, supra, incorporated herein by reference, on cells grown to equal density levels (as determined by protein and DNA content). Some enzyme assays are carried out in the presence of reducing agent, which blocks secreted but not cytosolic PLA2 activity, to exclude potential interference by secreted PLA2. To characterize the stimulated cPLA2 further, cultured cells are homogenized in protease inhibitor-containing buffer, in the presence of 1 mM EDTA or 0.3 mM Ca^2+, and then centrifuged in order to generate crude membrane fractions and cytosolic extracts. […] In separate experiments, enzyme activity is measured in the presence of different concentrations of free calcium to determine whether the enzyme activity is calcium-dependent or not

PLA2 = settings: Table 3a, 100 nM
Method: Phospholipase Assays. For PLA2 assays, GCPs suspended in modified Ca^2+-free Krebs buffer (10-30 μg protein/assay) were first incubated for 10 min on ice in the presence or absence of effectors. Subsequently, phospholipid substrate (PC, PE or PI) containing radiolabelled AA (7 μM; 50,000 cpm/assay) was added and the reaction carried out at 37° C. for 10 minutes. Typically, assay mixtures contained 10 μM CaCl2; specific modifications are described in the figure legends. For phospholipase C (PLC) assays, conditions were the same when run in parallel with PLA2 assays. When PLC assays were run independently, Ca^2+ was increased to 1 mM. Reactions were terminated by the addition of 3.75 volumes of cold chloroform/methanol (1:2). PLA2 assays also were performed on neurons dissociated from fetal rat cerebral cortex. The assay conditions were the same as those just described for GCPs.
Products recovered in chloroform were loaded onto silica gel 60 TLC plates and developed as described earlier (Nègre-Aminou and Pfenninger, 1993) in hexane/ether/acetic acid (40:60:1). AA and DG were identified on TLC by co-migration with authentic standards. The appropriate bands were excised into scintillation fluid and counted on a Beckman LS 1801 scintillation sprectrometer. All assays were run in triplicate.

cPLA2 [2] = test: cPLA2 activation in AT-2 cells; assay type: biochemical, rat
Method: FIG. 9. Thrombin activation of cPLA2 in AT-2 cells incubated with either ^14C-AA-PI, -PC or -PE as substrate, for 10 min at 37° C. Released AA and diacylglycerol were isolated and counted.

phospholipase C = settings: thrombin stimulation as for PLA2
Method: MAT-Lu cells were plated at a density of 0.5×10^6 cells per flask (T-75) and grown as detailed above to approximately 25% confluency. On the day before the experiments, the serum level in the medium was dropped to 1%. Cells were fed with fresh 1% serum-medium 4 hrs prior to harvest. For harvesting, cells were rinsed with Ca^++,Mg^++-free HBSS, covered with 2 ml cold Ca^++-free modified Krebs buffer (220 mM sucrose, 50 mM NaCl, 5 mM KCl, 22 mM HEPES, 10 mM glucose. 1.2 mM NaH2PO4 and 1.2 mM MgCl2, pH 7.3), and placed on ice. Cells were scraped off, pelleted for 5 min at 200 rpm and re-suspended in a minimal volume of Krebs buffer. Aliquots were used to determine protein concentration (Biorad Assay) and phopholipase activity. […] Lipid extraction followed by thin-layer chromatography (Negre-Aminou et al., J Neurochem 67:2599-2608 (1996)) isolated the reaction product (identified by co-migration with AA standard), which was then scraped off the plates and analyzed in a scintillation spectrometer (Beckman). In some experiments, especially those involving ^14C-AA-phosphatidylinositol as substrate, the diacylglycerol-containing band (identified by co-migration of standard) also was scraped and counted in order to measure phospholipase C (PLC) activity.

growth cone PLA2 = test: PLA2 assay in growth cone particles (GCPs); assay type: biochemical, rat; settings: for net activity (pmol/min/mg protein), GCPs: Table 3a, 100 nM
Method: Growth Cone Particle (GCP) Isolation. GCPs were prepared as described by Pfenninger et al. (1983) and modified by Lohse et al., Dev. Brain Res., 96:38-96 (1996). Briefly, 18-day fetal brains were homogenized in approximately 8 volumes of 0.32 M sucrose containing 1 mM MgCl2, 2 mM TES buffer, pH 7.3, and 3 μM aprotinin. A low-speed supernatant (1,660 g×15 min) was loaded onto a discontinuous sucrose density gradient With steps of 0.83 M and 2.66 M sucrose containing MgCl2 and TES. The gradients were spun to equilibrium at 242,000 g for 40 min in a vertical rotor (Vti50, Beckman). The GCP fraction at the 0.32/0.83 M sucrose interface was collected and used for the experiments described below.
All assays were run in triplicate.

protein kinase C (PKC) = test: MARCKS phosphorylation by PKC in isolated GCPs; assay type: biochemical, rat; settings: isolated growth cones
Text: FIG. 7A. Thrombin stimulates MARCKS phosphorylation in a 12-LOX-dependent manner. FIG. 7B. 12(S)-HETE stimulates MARCKS phosphorylation by PKC in isolated GCPs. […] Polypeptides were resolved by SDS-PAGE. MARCKS phosphorylation was quantified by phosphorimaging.

thrombin: potent growth cone repellent; commercially available thrombin (Sigma); rat thrombin in Boyden assays
effect on GCP detachment from laminin (GCPs plated on laminin; 20 min at 37° C., cytochalasin D 1 μM): detached from the substratum in a dose-dependent maaner | growth cones detached from laminin (GCPs plated on laminin; same thrombin concentrations as cPLA2 assays, in presence of calcium, controls 17%): about 46% | effect on cell migration across the membrane (MAT-Lu cells; 200 nM in lower well, 4 hrs, serum-free medium): almost completely suppresses cell migration across the membrane | Mat-Lu cells crossing filter in % of control +/− SEM (MAT-Lu cells; Control column (no IGF-1)): 30.9 +/− 5.7 % of control | Mat-Lu cells crossing filter in % of control +/− SEM (MAT-Lu cells; IGF-1 (0.75 nM)): 38 +/− 9.2 % of control | decrease in control and IGF-1-induced migration across the membrane (MAT-Lu cells; at 200 nM): 70-80% | stimulation of AA release from PC (cPLA2 [1]): about 4 fold | stimulation of AA release from PE (cPLA2 [1]): about 4 fold | stimulation of PI hydrolysis (cPLA2 [1]): not further stimulated by thrombin | net activity (pmol/min/mg protein), intact neurons (PLA2; substrate PE): 26.8 ± 1.9 pmol/min/mg protein | net activity (pmol/min/mg protein), intact neurons (PLA2; substrate PI): 42.5 ± 16 pmol/min/mg protein | stimulation of cPLA2, PC substrate (cPLA2 [2]): over 100 fold | stimulation of cPLA2, PE substrate (cPLA2 [2]): about 30 fold | stimulation of cPLA2, PI substrate (cPLA2 [2]): over 100 fold | effect on DAG release from PI / phospholipase C (words) (phospholipase C): reduced DAG release rather than stimulating it | effect on DAG release from PI / phospholipase C (words) (phospholipase C; listed as Thrombin): did not activate phospholipase C in MAT-Lu cells | concentration at which PLA2 activation saturates (growth cone PLA2; AA release from PI): about 250 nM | net activity (pmol/min/mg protein), GCPs (growth cone PLA2; substrate PE): 210.2 ± 4.8 pmol/min/mg protein | net activity (pmol/min/mg protein), GCPs (growth cone PLA2; substrate PI): 262 ± 47 pmol/min/mg protein | net activity (pmol/min/mg protein), no DTT (growth cone PLA2; Table 3b, GCPs, substrate PI, thrombin 100 nM): 221 ± 39.9 pmol/min/mg protein | net activity (pmol/min/mg protein), 50 nM DTT (growth cone PLA2; Table 3b, GCPs, substrate PI, thrombin 100 nM or control): 223 ± 53.4 pmol/min/mg protein | net activity (pmol/min/mg protein) (growth cone PLA2; Table 3c, GCPs, substrate PI, BDNF 100, IGF-1 0.75, insulin 1, thrombin 200 nM, control 159 ± 6.2): 355 ± 28.0 pmol/min/mg protein | stimulation of PC-hydrolyzing cPLA2 (14C-AA release from PC) (growth cone PLA2; thrombin 100 nM, GCPs): about 7 fold | stimulation of cPLA2-PE (14C-AA release from PE) (growth cone PLA2; thrombin 100 nM, GCPs): ~7 fold | stimulation of cPLA2-PI (14C-AA release from PI) (growth cone PLA2; thrombin 100 nM, GCPs): about 5 fold | stimulation of PC-hydrolyzing cPLA2 (14C-AA release from PC) (growth cone PLA2; thrombin 100 nM, GCPs, listed as Thrombin): ~7 fold | stimulation of MARCKS and GAP43 phosphorylation (protein kinase C (PKC)): stimulates MARCKS and GAP43 phosphorylation
